Reference: PubChem BioAssay AID1845200 (Molecular Pharmacology Branch, DTP, NCI, 2023)

Tested on: ASPS-1 complex tumor spheroids, viability
Assay: Anticancer human tumor ASPS-1 cell line growth inhibition;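 further: spheroids exposed to agents for 7 days after 3 days of growth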;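 on viability, T/C: 100% = DMSO vehicle treated spheroids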
Conditions: for IC50: curve of first compound; for viability, T/C: stronger effect = lower value
How it was run: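 Single agents and combinations were tested on spheroids built from tumor cells plus HUVEC and hMSC, at half-log dilutions starting at or near clinical Cmax, else 10 microM; final DMSO 0.25% (v/v).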

[1] = second compound 1 µM, first compound 0.0316 µM
[2] = second compound 1 µM, first compound 0.1 µM
[3] = second compound 1 µM, first compound 0.316 µM
[4] = second compound 1 µM, first compound 1 µM
[5] = second compound 1 µM, first compound 3.16 µM
[6] = second compound 1 µM, first compound 10 µM
[7] = second compound 3.16 µM, first compound 0.0316 µM
[8] = second compound 3.16 µM, first compound 0.1 µM
[9] = second compound 3.16 µM, first compound 0.316 µM
[10] = second compound 3.16 µM, first compound 1 µM
[11] = second compound 3.16 µM, first compound 3.16 µM
[12] = second compound 3.16 µM, first compound 10 µM
[13] = second compound 10 µM, first compound 0.0316 µM
[14] = second compound 10 µM, first compound 0.1 µM
[15] = second compound 10 µM, first compound 0.316 µM
[16] = second compound 10 µM, first compound 1 µM
[17] = second compound 10 µM, first compound 3.16 µM
[18] = second compound 10 µM, first compound 10 µM
[19] = second compound 31.6 µM, first compound 0.0316 µM
[20] = second compound 31.6 µM, first compound 0.1 µM
[21] = second compound 31.6 µM, first compound 0.316 µM
[22] = second compound 31.6 µM, first compound 1 µM
[23] = second compound 31.6 µM, first compound 3.16 µM
[24] = second compound 31.6 µM, first compound 10 µM
[25] = second compound 100 µM, first compound 0.0316 µM
[26] = second compound 100 µM, first compound 0.1 µM
[27] = second compound 100 µM, first compound 0.316 µM
[28] = second compound 100 µM, first compound 1 µM
[29] = second compound 100 µM, first compound 3.16 µM
[30] = second compound 100 µM, first compound 10 µM

For `Cc1cc(C)c(CNC(=O)c2cc(-c3ccc(CN4CCOCC4)cc3)cc3c2cnn3C2CCCC2)c(=O)[nH]1` + Cn1nnc2c(C(N)=O)ncn2c1=O, which IC50 (second compound 1 µM) is on record?
Its IC50 is greater than 10 µM.

What about the IC50 (second compound 3.16 µM) of the same compound?
The IC50 was greater than 10 µM.

And the IC50 (second compound 10 µM)?
Its IC50 is greater than 10 µM.

And the IC50 (second compound 31.6 µM)?
The IC50 was greater than 10 µM.

What about the IC50 (second compound 100 µM) of the same compound?
Its IC50 is greater than 10 µM.

What about the viability, T/C [1] of the same compound?
The viability, T/C was 94.8%.

What about the viability, T/C [2] of the same compound?
The viability, T/C was 95.4%.

And the viability, T/C [3]?
Its viability, T/C is 94.8%.

And the viability, T/C [4]?
The viability, T/C was 92.7%.

And the viability, T/C [5]?
The viability, T/C was 93.2%.

What about the viability, T/C [6] of the same compound?
Its viability, T/C is 86.7%.

What about the viability, T/C [7] of the same compound?
The viability, T/C was 102%.

And the viability, T/C [8]?
The viability, T/C was 98.1%.

And the viability, T/C [9]?
Its viability, T/C is 98.8%.

And the viability, T/C [10]?
The viability, T/C was 99.6%.

What about the viability, T/C [11] of the same compound?
The viability, T/C was 92%.

What about the viability, T/C [12] of the same compound?
Its viability, T/C is 91.2%.

And the viability, T/C [13]?
Its viability, T/C is 86.3%.

And the viability, T/C [14]?
Its viability, T/C is 77.6%.

What about the viability, T/C [15] of the same compound?
Its viability, T/C is 88%.

What about the viability, T/C [16] of the same compound?
Its viability, T/C is 89.3%.

And the viability, T/C [17]?
Its viability, T/C is 82%.

What about the viability, T/C [18] of the same compound?
Its viability, T/C is 82%.

And the viability, T/C [19]?
The viability, T/C was 81.4%.

And the viability, T/C [20]?
The viability, T/C was 83.7%.

What about the viability, T/C [21] of the same compound?
Its viability, T/C is 77.7%.

What about the viability, T/C [22] of the same compound?
The viability, T/C was 87.3%.

And the viability, T/C [23]?
The viability, T/C was 73.2%.

What about the viability, T/C [24] of the same compound?
The viability, T/C was 69.8%.

What about the viability, T/C [25] of the same compound?
The viability, T/C was 69%.

And the viability, T/C [26]?
Its viability, T/C is 67.5%.

What about the viability, T/C [27] of the same compound?
Its viability, T/C is 73.4%.

And the viability, T/C [28]?
The viability, T/C was 71.3%.

What about the viability, T/C [29] of the same compound?
The viability, T/C was 61.3%.

What about the viability, T/C [30] of the same compound?
Its viability, T/C is 55.3%.

For `Cc1sc2c(c1C)C(c1ccc(Cl)cc1)=NC(CC(=O)Nc1ccc(O)cc1)c1nnc(C)n1-2` (stereo not given) + Cn1nnc2c(C(N)=O)ncn2c1=O, which IC50 (second compound 1 µM) is on record?
Its IC50 is greater than 3 µM.

And the IC50 (second compound 3.16 µM)?
Its IC50 is greater than 3 µM.

What about the IC50 (second compound 10 µM) of the same compound?
Its IC50 is greater than 3 µM.

And the IC50 (second compound 31.6 µM)?
The IC50 was greater than 3 µM.

And the IC50 (second compound 100 µM)?
The IC50 was greater than 3 µM.

And the viability, T/C (second compound 1 µM, first compound 0.00949 µM)?
The viability, T/C was 102%.

What about the viability, T/C (second compound 1 µM, first compound 0.03 µM) of the same compound?
The viability, T/C was 110%.

And the viability, T/C (second compound 1 µM, first compound 0.0949 µM)?
The viability, T/C was 114%.

What about the viability, T/C (second compound 1 µM, first compound 0.3 µM) of the same compound?
The viability, T/C was 99.4%.

And the viability, T/C (second compound 1 µM, first compound 0.949 µM)?
Its viability, T/C is 91.6%.

What about the viability, T/C (second compound 1 µM, first compound 3 µM) of the same compound?
The viability, T/C was 88.6%.

And the viability, T/C (second compound 3.16 µM, first compound 0.00949 µM)?
Its viability, T/C is 101%.

What about the viability, T/C (second compound 3.16 µM, first compound 0.03 µM) of the same compound?
Its viability, T/C is 108%.

And the viability, T/C (second compound 3.16 µM, first compound 0.0949 µM)?
Its viability, T/C is 111%.

And the viability, T/C (second compound 3.16 µM, first compound 0.3 µM)?
Its viability, T/C is 96.7%.

And the viability, T/C (second compound 3.16 µM, first compound 0.949 µM)?
The viability, T/C was 94.9%.

And the viability, T/C (second compound 3.16 µM, first compound 3 µM)?
The viability, T/C was 89.9%.

And the viability, T/C (second compound 10 µM, first compound 0.00949 µM)?
The viability, T/C was 88.7%.

And the viability, T/C (second compound 10 µM, first compound 0.03 µM)?
Its viability, T/C is 99.6%.

And the viability, T/C (second compound 10 µM, first compound 0.0949 µM)?
Its viability, T/C is 99.1%.

And the viability, T/C (second compound 10 µM, first compound 0.3 µM)?
Its viability, T/C is 100%.

And the viability, T/C (second compound 10 µM, first compound 0.949 µM)?
The viability, T/C was 97.5%.

And the viability, T/C (second compound 10 µM, first compound 3 µM)?
The viability, T/C was 83.9%.

And the viability, T/C (second compound 31.6 µM, first compound 0.00949 µM)?
Its viability, T/C is 94.6%.

What about the viability, T/C (second compound 31.6 µM, first compound 0.03 µM) of the same compound?
The viability, T/C was 92.3%.

And the viability, T/C (second compound 31.6 µM, first compound 0.0949 µM)?
The viability, T/C was 103%.

What about the viability, T/C (second compound 31.6 µM, first compound 0.3 µM) of the same compound?
Its viability, T/C is 95.6%.

And the viability, T/C (second compound 31.6 µM, first compound 0.949 µM)?
Its viability, T/C is 83.9%.

And the viability, T/C (second compound 31.6 µM, first compound 3 µM)?
Its viability, T/C is 80.3%.

And the viability, T/C (second compound 100 µM, first compound 0.00949 µM)?
The viability, T/C was 75.9%.

And the viability, T/C (second compound 100 µM, first compound 0.03 µM)?
Its viability, T/C is 82.6%.

And the viability, T/C (second compound 100 µM, first compound 0.0949 µM)?
The viability, T/C was 84.8%.

And the viability, T/C (second compound 100 µM, first compound 0.3 µM)?
The viability, T/C was 79%.

And the viability, T/C (second compound 100 µM, first compound 0.949 µM)?
The viability, T/C was 70.7%.

And the viability, T/C (second compound 100 µM, first compound 3 µM)?
The viability, T/C was 61.2%.

For `[2H]c1nc(C)nc([2H])c1-c1cc(NC[C@@H](C)c2cccc3c(C(=O)NC)ccnc23)ncn1` + Cn1nnc2c(C(N)=O)ncn2c1=O, which IC50 (second compound 1 µM) is on record?
Its IC50 is greater than 10 µM.

What about the IC50 (second compound 3.16 µM) of the same compound?
The IC50 was greater than 10 µM.

And the IC50 (second compound 10 µM)?
The IC50 was greater than 10 µM.

And the IC50 (second compound 31.6 µM)?
Its IC50 is greater than 10 µM.

What about the IC50 (second compound 100 µM) of the same compound?
The IC50 was greater than 10 µM.

And the viability, T/C [1]?
The viability, T/C was 106%.

What about the viability, T/C [2] of the same compound?
The viability, T/C was 100%.

And the viability, T/C [3]?
The viability, T/C was 98.3%.

What about the viability, T/C [4] of the same compound?
Its viability, T/C is 101%.

And the viability, T/C [5]?
Its viability, T/C is 95.8%.

And the viability, T/C [6]?
Its viability, T/C is 99.2%.

And the viability, T/C [7]?
The viability, T/C was 104%.

What about the viability, T/C [8] of the same compound?
The viability, T/C was 104%.

And the viability, T/C [9]?
Its viability, T/C is 103%.

What about the viability, T/C [10] of the same compound?
Its viability, T/C is 104%.

And the viability, T/C [11]?
The viability, T/C was 101%.

And the viability, T/C [12]?
The viability, T/C was 98.3%.

And the viability, T/C [13]?
The viability, T/C was 88.4%.

And the viability, T/C [14]?
Its viability, T/C is 93.2%.

What about the viability, T/C [15] of the same compound?
Its viability, T/C is 96.4%.

And the viability, T/C [16]?
Its viability, T/C is 90.1%.

And the viability, T/C [17]?
The viability, T/C was 89.5%.

What about the viability, T/C [18] of the same compound?
The viability, T/C was 89.7%.

What about the viability, T/C [19] of the same compound?
The viability, T/C was 79.8%.

And the viability, T/C [20]?
Its viability, T/C is 80.2%.

What about the viability, T/C [21] of the same compound?
Its viability, T/C is 81.1%.

What about the viability, T/C [22] of the same compound?
Its viability, T/C is 79.7%.

What about the viability, T/C [23] of the same compound?
Its viability, T/C is 78.3%.

What about the viability, T/C [24] of the same compound?
Its viability, T/C is 76.4%.

What about the viability, T/C [25] of the same compound?
Its viability, T/C is 74.2%.

What about the viability, T/C [26] of the same compound?
The viability, T/C was 72.5%.

And the viability, T/C [27]?
The viability, T/C was 74.5%.

And the viability, T/C [28]?
Its viability, T/C is 66.5%.

And the viability, T/C [29]?
Its viability, T/C is 68.4%.

And the viability, T/C [30]?
Its viability, T/C is 65.8%.
